Where two headings read alike, the source gives them in different places.
Assays:
[1] = system: C. elegans expressing A315T hTDP-43; assay: Neuroprotection of C. elegans; format: in vivo; details: 34.8 μM; A315T transgenic animals, second day of adulthood
Method: Age synchronized C. elegans were cultured with 34.8 μM Compound 100 and the effect on the animal's movement and motor neurons were investigated. FIGS. 2A-2C show a comparison between the crawling speed of WT and Tg nematodes expressing wt (FIG. 2A), human wt (FIG. 2B), and A315T hTDP-43 (FIG. 2C) on the second day of adulthood.

[2] = system: Embryonic mouse hippocampal neurons transduced with TDP-43 EGFP; assay: Neuroprotection assay (total dendrite length); format: cell-based; details: compound at 10 times the IC50 value, treated DIV7, 9, 11; fixed DIV12
Method: CMF dissection buffer: 1× Hank's balanced salt solution (Ca—/Mg, 500 mL) and 10 mM HEPES, pH 7.25-7.3 (IM stock, 5 mL)
Plating media: MEM (Earle salts+/Glutamine, 95 mL), FBS (to 2.5%, 2.5 mL), Pen/Strep (1×, 1 mL), glutamine (1×, 1 mL), and D-glucose (0.6% w/v, 0.6 g)
Feeding media: neurobasal media (96 mL), B27 supplement (2 mL), Pen/Strep (1 mL), and glutamine (1 mL).
Embryonic mouse hippocampal neurons were cultured according to Kaech, S. and Banker, G. (2006) Nat Protoc 1:2406-2415 and dissected at […] from CD1 mice. Once all the hippocampi were removed, they were placed in a 15 mL conical Falcon tube on ice and brought to a final volume of 4.5 mL with CMF dissection buffer. 0.5 mL of a 2.5% trypsin-EDTA solution was then added, and the mixture was incubated at 37° C. for 15 min. […] Neurons were traced and analyzed using NeuronJ.
Results of the neuroprotection assay for exemplary compounds of the invention are summarized in Table 1, wherein A represents an average rescue total dendrite length of >150%; B represents an average rescue total dendrite length of 100-149%; C represents an average rescue total dendrite length of 50-99%; D represents an average rescue total dendrite length of 0-49%; E represents an average rescue total dendrite length of <0%; and ND signifies that the average rescue total dendrite length was not determined.

[3] = system: TDP-43 inclusions in PC12 cells stably expressing wild type (WT) TDP-43-GFP; assay: Dose response assay for TDP-43 inhibition; format: cell-based; details: Rattus norvegicus, PC-12
Method: Exemplary compounds of the invention were evaluated for efficacy in inhibiting TDP-43 inclusions using a dose response assay. Briefly, PC12 cells stably expressing wild type (WT) TDP-43-GFP were stressed with 15 μM to induce TDP-43 inclusions. The cells were then treated with exemplary compounds of the invention and the inhibitory effect on TDP-43 inclusions was observed using fluorescent microscopy. The ratio of cells with TDP-43 inclusions was calculated based on the total number of cells with detectable GFP expression. A 12-point dose response curve was generated, and the IC50 for each compound tested was determined.

[4] = system: TDP-43 aggregates in motor neurons generated from ALS patient-derived iPSCs; assay: Reduction of insoluble TDP-43 levels (immunoblot); format: cell-based; details: 2 μM for 48 hours
Method: The cells were differentiated into motor neurons for 22 days, then treated with 2 μM of Compounds 100, 101, and Compound 7 for 48 hours. The cells were lysed and TDP-43 aggregate formation was detected by immunoblot.

Structure (SMILES) | Neuroprotective effect on motor neurons [1] | Average Additive Dendrite Length (%) [2] | IC50 ([3]; inhibition of TDP-43 inclusions, PC12 cells WT TDP-43-GFP, 12-point dose response, read-out: IC50) [nM] | Reduction of TDP-43 aggregates in the sarkosyl insoluble fraction [4] | IC50 [3] [nM]
Cc1ccc(Cl)cc1NS(=O)(=O)c1c(C(=O)N2CCCC2)c(C)n(C)c1C [Compound 100, N-(5-chloro-2-methylphenyl)-1,2,5-trimethyl-4-(pyrrolidine-1-carbonyl)-1H-pyrrole-3-sulfonamide] | neuroprotective effect | B (B represents an average rescue total dendrite length of 100-149%) | 101 to 250 | reduced dimeric and multimeric TDP-43 aggregates | –
CCc1cccc(C)c1NS(=O)(=O)c1c(C(=O)N2CCCC2)c(C)n(C)c1C [Compound 101, N-(2-ethyl-6-methylphenyl)-1,2,5-trimethyl-4-(pyrrolidine-1-carbonyl)-1H-pyrrole-3-sulfonamide] | – | A (A represents an average rescue total dendrite length of >150%) | – | reduced dimeric and multimeric TDP-43 aggregates | 101 to 250

Reference: patent US20170369474A1, “COMPOUNDS, COMPOSITIONS AND METHODS OF USE” (Aquinnah Pharmaceuticals, Inc., priority 2014, published 2017)
